Tests used:
K6 myoblasts = assay: DNA synthesis (BrdU incorporation) in K6 myoblasts; type: cell-based, rat; conditions: serum-starved K6 myoblasts, 16 h; FCS at 10%
Procedure: Effects of insulin, insulin analogs and IGF-I on the incorporation of 5-bromo-2′-deoxyuridine (BrdU) into DNA in K6 myoblasts. Myoblasts were serum-starved for 30 h in DMEM and subsequently incubated with BrdU in the absence (basal) or presence of the indicated concentrations of peptide hormones or fetal calf serum (FCS) for 16 h. Cells were fixed, denatured and the incorporation of BrdU was determined using an anti-BrdU antiserum and ECL detection. Data are mean values±SEM of four separate experiments.
For monitoring DNA synthesis, K6 myoblasts (1×10^4 cells/well) were seeded in 24-well microtiter tissue culture plates and were cultured for 24 h in DMEM containing 10% FCS, followed by a 30 h culture period under serum-free conditions. Cells were then stimulated with the different peptide hormones or 10% FCS for 16 h with the simultaneous addition of 5-bromo-2′-deoxyundine (BrdU). After removing the labeling mediums the cells were fixed and the DNA was denatured by addition of FixDenat (Boehringer Mannheim, Germany). Cells were then incubated with a peroxidase-conjugated anti-BrdU antiserum, and after addition of substrate the light emission was quantified on a Lumilmager work station.

INS-1 cells = assay: Cytokine-induced apoptosis in pancreatic β-cells (INS-1, nucleosomal release ELISA); type: cell-based, rat; conditions: IL-1β + IFN-γ, 24 h, IGF-I 10 nM, mean ± SEM of 4-5 experiments
Procedure: The rat insulinoma cell line INS-1 was grown in RPMI 1640 medium supplemented with 10% heat-inactivated fetal calf serum (FCS), 500 U/ml penicillin, 50 μg/ml streptomycin, 2 mmol/l glutamine and 50 μmol/l 2-mercaptoethanol and passaged by trypsinization. Functional integrity of the cells was confirmed by measuring glucose-stimulated insulin secretion. INS-1 cells were routinely seeded at 3.5×10^5 cells/well of a 12-well plate for cell death detection experiments and used on day 4 at 60-70% confluence.
Subconfluent INS-1 cells were incubated for 2 h in RPMI 1640 medium (Eggenstein, Germany) without FCS supplemented with 0.5% BSA. After this serum free period the medium was removed and replaced with fresh RPMI 1640 containing 5% FCS and 0.5% BSA. […] The induced apoptosis was measured by the specific determination of mono- and oligonucleosomes in the cytoplasmatic fraction of cell lysates using a cell death detection ELISA kit (Roche). The assay is based on a quantitative sandwich-enzyme-immunoassay-principle using mouse monoclonal anti-histone and anti-DNA peroxidase antibodies. The relative degree of apoptotic cell death was photometrically determined by measuring the peroxidase activity of the immunocomplexes at 405 nm. […]

## IGF-I: insulin-like growth factor I, peptide hormone used as comparator
K6 myoblasts
  Increase in BrdU-incorporation / DNA synthesis, fold: 4 fold
INS-1 cells
  Inhibition of cytokine-induced apoptosis: 42 ± 2%

Source: US20070099821A1, “METHOD OF ACTIVATING INSULIN RECEPTOR SUBSTRATE-2 TO STIMULATE INSULIN PRODUCTION” (Sanofi-Aventis Deutschland GmbH, priority 2001, published 2007)
